Results reported in patent publication US20260258030A1, “USE AND TREATMENT METHOD OF AZETIDINE DERIVATIVE” (SICHUAN KELUN-BIOTECH BIOPHARMACEUTICAL CO., LTD., priority 2022, published 2026).

Tests used:
[1] = tested on: STAT5 phosphorylation induced by cytokine IL-2 stimulation in CD4+ T cells; assay: Inhibition of STAT5 phosphorylation induced by IL-2 in CD4+ T cells in human whole blood (flow cytometry); type: cell-based
Source text: (§1) The inhibitory effect of Compound 8 on STAT5 phosphorylation induced by cytokine IL-2 stimulation in CD4+ T cells in human whole blood, as well as on STAT3 phosphorylation induced by cytokine IL-6 stimulation in CD4+ T cells in human whole blood, was detected using flow cytometry.

[2] = target: PKA (protein kinase A) (Homo sapiens, UniProt P17612); assay: In vitro kinase inhibition, enzymatic assay, PKA; type: biochemical; conditions: at a concentration of 200 nM; read-out: inhibition rate on PKA
Source text: (§2) An in vitro enzymatic assay system was used to test the inhibitory effect of Compound 8 on certain kinase targets.

[3] = tested on: STAT3 phosphorylation induced by cytokine IL-6 stimulation in CD4+ T cells; assay: Inhibition of STAT3 phosphorylation induced by IL-6 in CD4+ T cells in human whole blood (flow cytometry); type: cell-based
Source text: as §1

[4] = target: p70S6K (p70 ribosomal protein S6 kinase) (Homo sapiens, UniProt P23443); assay: In vitro kinase inhibition, enzymatic assay, p70S6K; type: biochemical; conditions: at a concentration of 200 nM; read-out: inhibition rate on p70S6K
Chain of p70S6K (p70 ribosomal protein S6 kinase) (P23443 whole entry): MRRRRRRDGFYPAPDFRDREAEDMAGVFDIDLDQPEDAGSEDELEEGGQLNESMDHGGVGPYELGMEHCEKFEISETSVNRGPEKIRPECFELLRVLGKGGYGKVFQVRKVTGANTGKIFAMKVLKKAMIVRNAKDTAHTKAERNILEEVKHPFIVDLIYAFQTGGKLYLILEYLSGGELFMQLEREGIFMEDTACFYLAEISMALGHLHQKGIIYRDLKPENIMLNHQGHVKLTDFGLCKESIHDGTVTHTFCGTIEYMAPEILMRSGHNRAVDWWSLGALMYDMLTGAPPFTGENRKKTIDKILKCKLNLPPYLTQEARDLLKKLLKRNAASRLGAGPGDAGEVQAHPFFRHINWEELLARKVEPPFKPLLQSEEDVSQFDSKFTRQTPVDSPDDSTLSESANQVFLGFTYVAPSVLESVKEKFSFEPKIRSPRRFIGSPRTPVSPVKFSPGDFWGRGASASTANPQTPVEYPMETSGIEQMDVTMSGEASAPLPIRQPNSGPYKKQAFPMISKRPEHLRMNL
Source text: as §2

IC50 [1]: 460 ± 30 nM | inhibition at 0.2 µM [2]: 75% | IC50 [3]: 1510 ± 60 nM | inhibition at 0.2 µM [4]: 67%
SMILES: CCS(=O)(=O)N1CC(CC#N)(n2cc(-c3ccnc4[nH]ccc34)cn2)C1 [Compound 8]
